From paper PMC5533769, “A cell-based high-throughput screening assay system for inhibitor compounds of antigen presentation by HLA class II molecule” (Scientific Reports, 2017)

Experiments:
[1] = target: T1, HLA-DR1 (DRA*01:01/DRB1*01:01) (Homo sapiens, UniProt P01903+P01911, A100R/D57E/F55L/F60I/F76Y/I96L/L162R/M171V/P40L/Q125E/R42F/V115G/Y59C); assay: FACS binding of biotinylated peptide to HLA-DR1 on HEK293T cells; settings: SA-PE, biotinylated peptide 30 µM, >5 h, 3 to 6 independent experiments
[2] = system: HLA-DR (DRB1*01:01, DRB1*04:05, DRB1*09:01, DRB1*15:01); assay: FACS binding of biotinylated peptide to panel of HLA-DR on stable 3T3 cells; parameters: species or system human; settings: SA-PE, […], biotinylated peptide 30 µM overnight
[3] = system: DR1 (DRB1*01:01) and DR4 (DRB1*04:01); settings: HLA-DRB1*01:01 and DRB1*04:01; ref [4], [5]; cited from earlier work
Text: An array of autoimmune diseases, including rheumatoid arthritis (RA) and multiple sclerosis (MS), are associated with particular alleles of HLA-DRB1[1], [3]. […] On ...

[4] = target: T1, HLA-DR1 (DRA*01:01/DRB1*01:01); assay: FACS binding of biotinylated peptide to HLA-DR1 on stable 3T3 cells; settings: SA-PE, stable 3T3, DRA*01:01 + DRB1*01:01, biotinylated peptide 30 µM overnight
[5] = target: HLA-DR15 (DRA*01:01/DRB1*15:01) (Homo sapiens, UniProt P01903+P01911); assay: FACS binding of biotinylated peptide to HLA-DR15 on HEK293T cells; settings: SA-PE, HEK293T transiently expressing DRA*01:01 + DRB1*15:01, biotinylated peptide 30 µM, 5 h (>5 h), 3 to 6 independent experiments
[6] = system: HLA-DR (DRB1*01:01, DRB1*04:05, DRB1*09:01, DRB1*15:01); assay: FACS binding of biotinylated peptide to panel of HLA-DR on HEK293T cells; parameters: species or system human
[7] = system: DR15-expressing 3T3 cells; settings: crystal violet (A550); 1 h with CLIP, then MBP83-99 6 h
[8] = target: T2, DR1 (DRB1*01:01) (Homo sapiens, UniProt P01903+P01911, A100R/D57E/F55L/F60I/F76Y/I96L/L162R/M171V/P40L/Q125E/R42F/V115G/Y59C); assay: 96-well competition assay: inhibition of MBP83-99 loading to DR1-expressing 3T3 cells; format: binding
T2 construct: The open reading frame for DRA or DRB1 were flanked with Xho 1 and EcoR1 sites; expressed in transfected cells

[9] = system: DR1-expressing 3T3 cells
[10] = target: T3, DR15 (DRB1*15:01) (Homo sapiens, UniProt P01903+P01911, OTHER:DRA*01:01ANDEACHDRB1VECTORSWEREINTRODUCEDINTOTHECELLSAT1:1RATIO/OTHER:MBP83-99TODR15(DRB1*15:01)); assay: 96-well competition assay: inhibition of MBP83-99 loading to DR15-expressing 3T3 cells; format: binding
T3 construct: The open reading frame for DRA or DRB1 were flanked with Xho 1 and EcoR1 sites; expressed in transfected cells

Compound	Peptide binding (MFI), HLA-DR1 [1]	Peptide binding across HLA-DR genotypes on 3T3 [2]	Presentation by DR1 and DR4 [3]	Peptide binding, DR1 on 3T3 [4]	Peptide binding (MFI), HLA-DR15 [5]	Binding MFI compared with MBP83-99 [6]	Cell number after binding assay (cytotoxicity), DR15 cells [7]	IC50 [8] [µM]	Kd [8] [µM]	Cell number after binding assay (cytotoxicity), DR1 cells [9]	IC50 [10] [µM]	Kd [10] [µM]
GIAGFKGEQGPKGEP [CII263-272, type II collagen (CII) 263–272, biotinylated type II collagen peptide]	Significant binding	not at all to other DR-expressing cells	present peptide from type II collagen	very weakly	Significant binding	far less than that for MBP83-99 binding						
CSCC[C@H](NC(=O)[C@H](CCCNC(=N)N)NC(=O)[C@H](CCSC)NC(=O)[C@H](CCCCN)NC(=O)[C@H](CO)NC(=O)[C@@H](NC(=O)[C@@H]1CCCN1C(=O)[C@@H](N)CCCCN)C(C)C)C(=O)N[C@@H](C)C(=O)N[C@H](C(=O)N1CCC[C@H]1C(=O)N[C@@H](CC(C)C)C(=O)N[C@@H](CC(C)C)C(=O)N[C@@H](CCSC)C(=O)N[C@@H](CCC(N)=O)C(=O)N[C@@H](C)C(=O)N[C@@H](CC(C)C)C(=O)O)[C@@H](C)O [CLIP102-118, Class II-associated invariant chain peptide (CLIP) 102–118]							no difference in the cell number	8	5	no difference in the cell number	9	3
